The target of test [1] is T1, dCas9-cytidine deaminase conjugate (BE3) (UniProt P14739+P38483+Q99ZW2, D10A).
T1 construct: made in house; host or cells: E. coli BL21 Star (DE3); purified protein:sgRNA complex lipofected into HEK293T cells
The test can be described thus: BE3 base-editing of EMX1 gene in HEK293T cells. It is filed as cell-based. The following applies: 1.25-20 μM, 72 h. The method, then:
Protein transfection of base editor BE3 into HEK293T cells. HEK293T cells were seeded on 48-well BioCoat poly-D-lysine plates (Corning) in 250 μL of antibiotic-free medium and transfected at ˜70% confluency. Prior to protein transfection, cells were incubated with 2 μL of DMSO-suspended BRD7087 or BRD5779 at the indicated concentration for 2-3 hours. BE3 protein was incubated with 1.1× molar excess of EMX1-targeting sgRNA at a final concentration ratio of 200 nM. 220 nM (based on a total well volume of 275 μL). The complex was mixed with 0.2 μL of compound for five minutes, incubated with 1.5 μL Lipofectamine 2000 (Thermo Fisher) and transfected according to the manufacturer's protocol plasmid delivery. […]
Purifications and sequencing of genomic DNA. […] Barcoded samples were pooled and purified by gel extraction (Qiagen) before quantification using the Qubit dsDNA HS Kit (Thermo Fisher) and qPCR (KAPA BioSystems) according to the manufacturer's instructions. Sequencing of pooled samples was performed using a single-end read from 260 to 300 bases on the MiSeq (Illumina) according to the manufacturer's instructions.
Analysis of base-edited sequences. Nucleotide frequencies were analyzed using a previously described MATLAB script 5. Briefly, the reads were aligned to the reference sequence via the Smith-Waterman algorithm. […]

The target in test [2] is SpCas9 (Streptococcus pyogenes serotype M1, UniProt Q99ZW2). The experiment in a line: Cas9 nuclease activity in EGFP disruption assay (U2OS.eGFP.PEST cells). Also noted: host or cells: U2OS.eGFP-PEST. The following applies: 10 μM. It is filed as cell-based. The protocol: (§1) Cas9 Nuclease activity in EGFP disruption assay. Approximately 200,000 U2OS.eGFP-PEST cells were nucleofected with 400 ng of SpCas9 (Addgene Plasmid #43861) and 40 ng of sgRNA (pFYF1320 EGFP Site #1, Addgene Plasmid #47511) expressing plasmids along with a Td-tomato-encoding plasmid using the SE Cell Line 4D-Nucleofector™ X Kit (Lonza) according to the manufacturer's protocol. Approximately 20,000 transfected cells/well in 3 replicates were plated in a 96-well plate (Corning® 3904). Cells were allowed to grow in the indicated amount of compound or DMSO for 24 h post transfection. Cells were then fixed using 4% paraformaldehyde and imaged with the HCS NuclearMask™ Blue Stain (Life Technologies) as the nuclear counter-staining agent. Imaging was performed with an IXM 137204 ImageXpress Automated High Content Microscope (Molecular Devices) at 10× magnification under three excitation channels (blue, green and red) with 9 acquiring sites per well. Images were analyzed in the MetaXpress software and data were plotted using GraphPad Prism 6. The Z′-value was calculated following the formula: […]
Sequence of SpCas9 (Q99ZW2 whole entry): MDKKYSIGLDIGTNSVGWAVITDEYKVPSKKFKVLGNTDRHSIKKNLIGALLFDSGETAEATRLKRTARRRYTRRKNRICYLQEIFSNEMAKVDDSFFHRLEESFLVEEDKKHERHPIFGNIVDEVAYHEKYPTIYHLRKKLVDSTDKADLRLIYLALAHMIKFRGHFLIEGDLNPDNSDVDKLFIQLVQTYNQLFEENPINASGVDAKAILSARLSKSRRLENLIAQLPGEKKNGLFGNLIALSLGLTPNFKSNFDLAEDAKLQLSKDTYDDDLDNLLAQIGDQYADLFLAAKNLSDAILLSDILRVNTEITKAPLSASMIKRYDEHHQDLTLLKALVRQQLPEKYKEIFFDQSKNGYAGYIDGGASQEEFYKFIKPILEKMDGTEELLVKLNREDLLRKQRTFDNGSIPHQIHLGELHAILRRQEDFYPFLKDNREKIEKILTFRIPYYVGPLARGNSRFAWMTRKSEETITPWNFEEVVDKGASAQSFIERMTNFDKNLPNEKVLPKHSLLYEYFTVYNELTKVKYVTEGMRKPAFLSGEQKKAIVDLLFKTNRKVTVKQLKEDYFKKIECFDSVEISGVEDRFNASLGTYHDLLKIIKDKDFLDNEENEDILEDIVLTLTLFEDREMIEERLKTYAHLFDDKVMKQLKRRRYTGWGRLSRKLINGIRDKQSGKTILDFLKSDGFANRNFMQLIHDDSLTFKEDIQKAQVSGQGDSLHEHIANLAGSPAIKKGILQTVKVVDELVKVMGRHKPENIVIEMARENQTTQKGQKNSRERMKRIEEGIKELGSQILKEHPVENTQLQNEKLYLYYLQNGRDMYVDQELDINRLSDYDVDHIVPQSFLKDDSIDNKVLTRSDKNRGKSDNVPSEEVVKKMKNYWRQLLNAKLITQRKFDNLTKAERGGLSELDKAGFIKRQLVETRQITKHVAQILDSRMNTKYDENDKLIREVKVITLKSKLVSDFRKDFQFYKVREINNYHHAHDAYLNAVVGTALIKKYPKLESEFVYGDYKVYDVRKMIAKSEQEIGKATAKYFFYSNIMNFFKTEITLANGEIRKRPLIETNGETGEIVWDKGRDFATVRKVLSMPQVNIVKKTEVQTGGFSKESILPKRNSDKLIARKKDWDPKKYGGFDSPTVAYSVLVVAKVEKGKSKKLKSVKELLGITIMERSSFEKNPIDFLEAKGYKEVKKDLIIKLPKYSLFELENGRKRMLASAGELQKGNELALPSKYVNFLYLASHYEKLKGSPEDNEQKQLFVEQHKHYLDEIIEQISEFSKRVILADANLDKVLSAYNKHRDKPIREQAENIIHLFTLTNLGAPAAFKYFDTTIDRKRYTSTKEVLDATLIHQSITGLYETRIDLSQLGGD
Cas9 Nuclease activity in EGFP disruption assay. In some embodiments, a quantitative human cell-based reporter assay that enables rapid quantitation of targeted nuclease activities is used to characterize off-target cleavage of CRISPR protein-based RNA guided endonucleases. In this assay, the activities of nucleases targeted to a single integrated EGFP reporter gene can be quantified by assessing loss of fluorescence signal in human U2OS.EGFP cells caused by inactivating frameshift insertion/deletion (indel) mutations introduced by error prone non-homologous end-joining (NHEJ) repair of nuclease-induced double-stranded breaks (DSBs).
as §1, with “Approximately” for “Cas9 Nuclease activity in EGFP disruption assay. Approximately”

Each structure is given as a SMILES string.

Consider `COc1ccc(-c2ccc3c(c2)[C@H]2[C@H](CCN2Cc2ccncc2)[C@@H](CO)N3)cc1` [BRD5779, ((3aR,4S,9bR)-8-(4-Methoxyphenyl)-1-(pyridin-4-ylmethyl)-2,3,3a,4,5,9b-hexahydro-1H-pyrrolo[3,2-c]quinolin-4-yl)methanol], for which, in test [1], the “inhibition of BE3-mediated base-editing (C→T conversion, words)” value is “efficient and dose-dependent inhibition”.
On to `OC[C@H]1Nc2ccc(-c3cccc(F)c3)cc2[C@H]2[C@@H]1CCN2Cc1ccncc1` [BRD7087, ((3aR,4S,9bR)-8-(3-Fluorophenyl)-1-(pyridin-4-ylmethyl)-2,3,3a,4,5,9b-hexahydro-1H-pyrrolo[3,2-c]quinolin-4-yl)methanol], for which the “inhibition of BE3-mediated base-editing (C→T conversion, words)” value in test [1] is “efficient and dose-dependent inhibition”. Moreover, in test [2], the inhibition at 10 µM came to 44% and the “inhibition of SpCas9 activity” value was 44%.

The record behind these values is patent US11760984B2, “CRISPR protein inhibitors” (THE BROAD INSTITUTE, INC., priority 2017, dated 2023).
